# Assay results published in US12479858B2, “Macrocyclic compounds as sting agonists and methods and uses thereof” (Lupin Limited, priority 2019, dated 2025).
# Structures can show the parent of a compound that is named as a salt. Where two headings read alike, the source gives them in different places.
# Experiments:
# CT26 Allograft = assay: Tumor volume in CT26 allograft BALB/c mice model, intravenous administration; format: in vivo; settings: for effect on tumor volume / subjects exhibiting complete tumor regression: i.v., indicated dose at days 1, 4, and 8
# Description: Effect of Compounds on Tumor Volume in CT26 Allograft BALB/c Mice Model by Intravenous (i.v.) Administration
# Healthy, female BALB/c mice in the age group of 5-8 weeks issued from Research Animal Facility (RAF). These mice were housed in individually ventilated cages (IVC) in the experimental animal room and were acclimatized not less than 5 days prior to cell inoculation. All the experimental activities were carried out inside the biosafety cabinet to ensure sterility. Under aseptic conditions, Allograft tumor model was generated by inoculating BALB/c mice with 0.1 million CT26 single cell suspension (colorectal cancer model), using 1 mL disposable syringe fitted with a 26G ½″ sterile needle. Each mouse was inoculated with 100 μL of CT26 cell suspension in phosphate buffered saline (PBS) media, subcutaneously in right flank region. Mice were randomized into different groups, post cell inoculation, with approximately equal mean and equal variation (S.E.M.) of tumor volumes in various treatment groups including vehicle control group.
# Tumor size was measured with Vernier caliper when the tumor became palpable. Tumor volume (T. V.) was calculated by using the formula: Tumor volume (mm^3)=(L×W^2)/2 • Where, L—Length of tumor, W—Width of tumor
# Mice were selected and randomized, on the basis of tumor volume, into required no. of groups with approximately equal mean and equal variation on day 1 of treatment, post-tumor cell inoculation. All study groups were treated via intravenous route on day 1, 4 and 8 dosing schedule, through lateral tail vein at a dose volume of 5 mL/kg.
# Tumor sizes were measured with Vernier caliper twice weekly and body weights of mice were recorded daily.
# Percent tumor growth inhibition (% TGI) was calculated using the formula: % TGI=[1−(Tf−Ti)/(Cf−Ci)]×100 Wherein Tf and Ti are the final and initial test tumor volumes, respectively, and Cf and Ci are the final and initial control mean tumor volumes, respectively.
# Percent Tumor Regression (% TR) was calculated using the formula: % TR=[(Initial T.V.−Final T.V.)/(Initial T.V.)]×100 Wherein T.V.=Tumor Volume
# Body weight change (%) was calculated by using the formula: Body weight change (%)[=(Final B.Wt.)−(Initial B.Wt.)/Initial B.Wt.]×100 Wherein B.Wt.=Body weight
# [1] = Plasma and tumor compound concentrations in CT26 tumor-bearing mice (LC-MS/MS); format: in vivo, BALB/c mice; settings: for Plasma Conc. / concentration at 24 h: 24 h (Table 4); for concentration at 3.5 h / concentration at 8 h / concentration at 12 h / concentration at 24 h: BALB/c, mouse, intravenous
# Description: Pharmacokinetic and Pharmacodynamic Profiling and Estimation of Immune Cell Infiltration in Tumors Following Treatment with Compounds 2, 6, 8, 12 and 14
# Serum and tumor cytokine levels and corresponding compound concentrations in mouse plasma were determined following single-dose intravenous administration in CT26 (murine colorectal carcinoma) tumor-bearing mice. Briefly, naïve BALB/c mice in the age group of 6-8 weeks were inoculated with 0.1 million CT-26 cells/animal in phosphate buffered saline (PBS), subcutaneously. […] Blood and tumor samples were harvested at various time points up to 24 h post-dose. Tumor samples were homogenized and prepared for cytokine estimation (ELISA) and compound concentration were determined by LC-MS/MS. Serum aliquots and tumor samples were snap-frozen and stored at −80° C. till further analysis. Serum and tumor samples were evaluated for Interferon beta (IFNβ), interleukin-6 (IL-6) and tumor necrosis factor alpha (TNFα) by enzyme linked immunosorbent assay (ELISA) using kits from R & D systems (Quantikine mouse IL-6 and TNFα kits) and PBL biosciences (Verikine mouse IFNβ kit).
# Bioanalysis of plasma and tumor samples: Plasma and tumor concentrations of test compounds were determined by LC-MS/MS method. Tumor samples were homogenized utilizing a bead-based homogenizer. Plasma samples and tumor homogenates were extracted using protein precipitation method with organic solution containing respective internal standards. Plasma and tumor concentrations were determined against respective calibration curve. Table 3 indicates the concentration of Compound 2 in plasma and tumor at different administered doses. Table 4 indicates the concentration of Compounds 6, 8, 12, and 14 in plasma and tumor at different administered doses. Table 5 indicates cytokine levels for Compound 2 in serum and tumor at different doses. Table 6 indicates cytokine levels for Compounds 6, 8, 12 and 14 in serum and tumor at 0.375 mpk.
# [2] = Apparent solubility/extended kinetic solubility by UHPLC; format: physicochemical; settings: aqueous buffer, thermodynamic from solid, phosphate buffer, 37° C.
# Description: Biological Assay—Determination of Apparent Solubility/Extended Kinetic Solubility by UHPLC
# Test sample preparation: About 0.5 mg of the test sample was weighed and transferred in duplicate in 1 mL glass inserts of 96 well plates. 5 μL of DMSO and 1 ml of phosphate buffer were added. Allowed for equilibrium in an orbital shaker at 37° C. for 24 hrs. Later, allowed it cool to room temperature and centrifuged the 96 well plate (at 240×10 RPM for 20 min) and supernatant material was taken into collection plate, covered it with the heat resistant aluminum sheet or supernatant material was directly taken into HPLC sample vial.
# Injected diluent as blank and linearity solutions in duplicate. Recorded the chromatograms and plotted the calibration curve, concentration (X-axis) versus Area (y-axis). The correlation coefficient for calibration curve should be not less than 0.95. If above criteria passes, then injected the test samples and recorded the chromatograms. In case saturated peaks are observed, then diluted the test sample with diluent as appropriate.
# Calculated the slope and intercept of the calibration curve. From the standard curve, determined the solubility of the sample in μM (micromolar).
# [3] = plasma, 0.375 mg/kg single i.v., 3.5 h (Table 4), read-out: Plasma Conc.
# [4] = plasma, 0.375 mg/kg single i.v., 8 h (Table 4), read-out: Plasma Conc.
# [5] = plasma, 0.375 mg/kg single i.v., 12 h (Table 4), read-out: Plasma Conc.
# [6] = tumor, 0.375 mg/kg single i.v., 3.5 h (Table 4), read-out: Tumor Conc.
# [7] = tumor, 0.375 mg/kg single i.v., 8 h (Table 4), read-out: Tumor Conc.
# [8] = tumor, 0.375 mg/kg single i.v., 12 h (Table 4), read-out: Tumor Conc.
# [9] = tumor, 0.375 mg/kg single i.v., read-out: Tumor Conc.
solubility at 24 h [2] [mM],SMILES,effect on tumor volume (CT26 Allograft),subjects exhibiting complete tumor regression (CT26 Allograft),Plasma Conc. ([1]; 0.375 mg/kg single i.v.),"concentration at 3.5 h [1, 3] [nM]","concentration at 8 h [1, 4] [nM]","concentration at 12 h [1, 5] [nM]","concentration at 3.5 h [1, 6] [nM]","concentration at 8 h [1, 7] [nM]","concentration at 12 h [1, 8] [nM]","concentration at 24 h [1, 9] [nM]",other results
3.5,"CCn1nc(C)cc1C(=O)Nc1nc2cc(C(N)=O)cc3c2n1C/C=C/Cn1c(NC(=O)c2cc(C)nn2CC)nc2cc(C(=O)N[C@H]4CC[C@H](c5nnn[nH]5)CC4)cc(c21)OCCCO3 [Compound 6, (E)-N-((1R,4R)-4-(1H-tetrazol-5-yl)cyclohexyl)-1,15-bis(1-ethyl-3-methyl-1H-pyrazole-5-carboxamido)-8,9,16,19-tetrahydro-7H-6,10-dioxa-2,14,15a,19a-tetraazacyclopentadeca[3,2,1-cd:8,9,10-c′d′]diindene-4,12-dicarboxamide sodium salt]",reduces tumor volume,7 out of 9,"0.01, BLQ,",440 ± 140,130 ± 60,50 ± 10,290 ± 120,250 ± 40,200 ± 50,260 ± 30,–
3.57,"CCn1nc(C)cc1C(=O)Nc1nc2cc(C(N)=O)cc3c2n1C/C=C/Cn1c(NC(=O)c2cc(C)nn2CC)nc2cc(C(=O)N[C@H]4CC[C@H](C(=O)O)CC4)cc(c21)OCCCO3 [Compound 2, (1R,4R)-4-((E)-12-carbamoyl-1,15-bis(1-ethyl-3-methyl-1H-pyrazole-5-carboxamido)-8,9,16,19-tetrahydro-7H-6,10-dioxa-2,14,15a,19a-tetraazacyclopentadeca[3,2,1-cd:8,9,10-c′d′]diindene-4-carboxamido)cyclohexane-1-carboxylic acid sodium salt]",reduces tumor volume,7 out of 9,–,–,–,–,–,–,–,–,"effect on body weight (CT26 Allograft; 3 mpk (mg/kg)): < 10%; effect on tumor volume at high dose (CT26 Allograft; two different doses, days 1, 4, and 8, n=10 (FIG. 6)): reduces tumor volume; concentration at 3.5 h ([1]; plasma, 0.093 mg/kg single i.v., 3.5 h, read-out: Plasma Conc.): 110 ± 10 nM; concentration at 8 h ([1]; plasma, 0.093 mg/kg single i.v., 8 h, read-out: Plasma Conc.): 30 nM; concentration at 3.5 h ([1]; plasma, 0.187 mg/kg single i.v., 3.5 h, read-out: Plasma Conc.): 220 ± 20 nM; concentration at 8 h ([1]; plasma, 0.187 mg/kg single i.v., 8 h, read-out: Plasma Conc.): 40 ± 10 nM; concentration at 3.5 h ([1]; plasma, 0.375 mg/kg single i.v., 3.5 h (Table 3), read-out: Plasma Conc.): 470 ± 60 nM; concentration at 8 h ([1]; plasma, 0.375 mg/kg single i.v., 8 h (Table 3), read-out: Plasma Conc.): 80 ± 10 nM; concentration at 12 h ([1]; plasma, 0.375 mg/kg single i.v., 12 h (Table 3), read-out: Plasma Conc.): 50 ± 10 nM; concentration at 3.5 h ([1]; tumor, 0.093 mg/kg single i.v., 3.5 h, read-out: Tumor Conc.): 70 ± 20 nM; concentration at 8 h ([1]; tumor, 0.093 mg/kg single i.v., 8 h, read-out: Tumor Conc.): 60 ± 30 nM; concentration at 3.5 h ([1]; tumor, 0.187 mg/kg single i.v., 3.5 h, read-out: Tumor Conc.): 90 ± 20 nM; concentration at 8 h ([1]; tumor, 0.187 mg/kg single i.v., 8 h, read-out: Tumor Conc.): 120 ± 80 nM; concentration at 3.5 h ([1]; tumor, 0.375 mg/kg single i.v., 3.5 h (Table 3), read-out: Tumor Conc.): 230 ± 120 nM; concentration at 8 h ([1]; tumor, 0.375 mg/kg single i.v., 8 h (Table 3), read-out: Tumor Conc.): 140 ± 50 nM; concentration at 12 h ([1]; tumor, 0.375 mg/kg single i.v., 12 h (Table 3), read-out: Tumor Conc.): 110 ± 60 nM; compound levels in tumor ([1]; CT26 tumor-bearing mice, single i.v. dose): sustained levels in tumor"

SMILES,solubility at 24 h [2] [mM],effect on tumor volume (CT26 Allograft),subjects exhibiting complete tumor regression (CT26 Allograft),Plasma Conc. ([1]; 0.375 mg/kg single i.v.),"concentration at 3.5 h [1, 3] [nM]","concentration at 8 h [1, 4] [nM]","concentration at 12 h [1, 5] [nM]","concentration at 3.5 h [1, 6] [nM]","concentration at 8 h [1, 7] [nM]","concentration at 12 h [1, 8] [nM]","concentration at 24 h [1, 9] [nM]",other results
"CCn1nc(C)cc1C(=O)Nc1nc2cc(C(N)=O)cc3c2n1C/C=C/Cn1c(NC(=O)c2cc(C)nn2CC)nc2cc(C(=O)N[C@H]4CC[C@H](C(=O)O)CC4)cc(c21)OC[C@@H](N1C2CCC1COC2)CO3 [Compound 14, (1S,4R)-4-((8S,E)-8-(3-oxa-8-azabicyclo[3.2.1]octan-8-yl)-12-carbamoyl-1,15-bis(1-ethyl-3-methyl-1H-pyrazole-5-carboxamido)-8,9,16,19-tetrahydro-7H-6,10-dioxa-2,14,15a,19a-tetraazacyclopentadeca[3,2,1-cd:8,9,10-c′d′]diindene-4-carboxamido)cyclohexane-1-carboxylic acid sodium salt]",6.8,reduces tumor volume,6 out of 9,BLQ,450 ± 70,90 ± 10,70 ± 60,170 ± 20,130 ± 20,160 ± 60,180 ± 60,–
